Measurements as given in patent US20110136762A1, “FUNGICIDAL PYRIDAZINES” (E.I. Du Pont de Nemours and Company, priority 2008, published 2011).
Marks after values point to notes of the source that are not given here.

Columns and labels:
Type in all cases: in vivo
[1] = test system: Puccinia recondita f. sp. tritici; test: Test B: wheat leaf rust, preventive spray on wheat seedlings, visual disease rating; details: 40 ppm (marked *), 100 = 100% disease control, 0 = no disease control relative to controls; for pest or weed control at 40 ppm: 192 h
Outline: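 Seedlings were sprayed to run-off at 200 ppm (500 g/ha), or at 40 ppm where marked *, then inoculated with spores the next day. Plants were held at saturated humidity at 20° C for 24 h and then in a growth chamber at 20° C for 7 days before visual disease rating.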

Septoria tritici = test: Test C: wheat leaf blotch, preventive spray on wheat seedlings, visual disease rating; details: 40 ppm (marked *), 100 = 100% disease control, 0 = no disease control relative to controls; for pest or weed control at 40 ppm: Zymoseptoria tritici, 504 h
Outline: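 Wheat seedlings were sprayed to run-off with test suspension at 200 ppm (500 g/ha), or at 40 ppm where marked *. They were inoculated with spores the next day and held in saturated atmosphere at 20° C for 48 h. After a further 19 days in a growth chamber at 20° C, disease was rated visually.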

Septoria nodorum = test: Test D: wheat glume blotch, preventive spray on wheat seedlings, visual disease rating; details: 100 = 100% disease control, 0 = no disease control relative to controls; for pest or weed control at 40 ppm / Test D rating (disease control, wheat glume blotch): 40 ppm (marked *)
Outline: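 Wheat seedlings sprayed to run-off with compound at 200 ppm (500 g/ha), or 40 ppm where marked, then inoculated with Septoria nodorum spores the next day. Held 48 h in saturated atmosphere at 20° C, then 7 days in a growth chamber at 20° C before visual disease rating.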

Erysiphe graminis = test: Test A: wheat powdery mildew, preventive spray on wheat seedlings, visual disease rating; details: 40 ppm (marked *), 100 = 100% disease control, 0 = no disease control relative to controls; for pest or weed control at 40 ppm: Blumeria graminis, 192 h
Outline: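 Seedlings were sprayed to run-off with test suspension at 200 ppm (500 g/ha), or 40 ppm where marked. They were dust-inoculated with spores the next day and kept 8 days at 20 °C. Disease was then rated visually.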

Alternaria solani = test: Test E: tomato early blight, preventive spray on tomato seedlings, visual disease rating; details: 100 = 100% disease control, 0 = no disease control relative to controls; for pest or weed control at 40 ppm / Test E rating (disease control, tomato early blight): 40 ppm (marked *)
Outline: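 Tomato seedlings sprayed to run-off with test suspension at 200 ppm (equivalent to 500 g/ha), or 40 ppm where marked "*", as a preventive treatment before A. solani challenge. Disease then rated visually.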

Botrytis cinerea = test: Test F: tomato Botrytis, preventive spray on tomato seedlings, visual disease rating; details: 100 = 100% disease control, 0 = no disease control relative to controls; for pest or weed control at 40 ppm / Test F rating (disease control, tomato Botrytis): 40 ppm (marked *)
Outline: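 Preventive test: tomato seedlings sprayed to run-off at 200 ppm (500 g/ha) or, where marked *, 40 ppm, then inoculated next day with B. cinerea spores. Kept 48 h at saturated humidity and 20° C, then 3 days at 24° C. Disease assessed visually.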

Row | Compound | pest or weed control at 40 ppm [1] [%] | pest or weed control at 40 ppm (Septoria tritici) [%] | pest or weed control at 200 ppm (Septoria nodorum; Parastagonospora nodorum, 200 ppm) [%] | pest or weed control at 40 ppm (Erysiphe graminis) [%] | pest or weed control at 200 ppm (Alternaria solani; Alternaria solani, 200 ppm) [%] | pest or weed control at 200 ppm (Botrytis cinerea; Botrytis cinerea, 200 ppm) [%] | pest or weed control at 40 ppm (Septoria nodorum; Parastagonospora nodorum) [%] | pest or weed control at 40 ppm (Alternaria solani; Alternaria solani) [%] | pest or weed control at 40 ppm (Botrytis cinerea; Botrytis cinerea) [%] | Test B rating (disease control, wheat leaf rust) [1] | Test C rating (disease control, wheat leaf blotch) (Septoria tritici) | Test D rating (disease control, wheat glume blotch) (Septoria nodorum) | Test A rating (disease control, wheat powdery mildew) (Erysiphe graminis) | Test E rating (disease control, tomato early blight) (Alternaria solani) | Test F rating (disease control, tomato Botrytis) (Botrytis cinerea)
1 | COc1cc(OC)cc(-c2c(-c3ccccc3)nnc(C)c2-c2c(F)cc(F)cc2F)c1 [Compound 35, 4-(3,5-dimethoxyphenyl)-6-methyl-3-phenyl-5-(2,4,6-trifluorophenyl)pyridazine] | 100 | 100 | 95 | 90 | 99 | 99 | – | – | – | – | – | – | – | – | –
2 | COc1cc(OC)c(Cl)c(-c2c(-c3ccccc3)nnc(C)c2-c2c(F)cc(F)cc2F)c1 [Compound 36, 4-(2-chloro-3,5-dimethoxyphenyl)-6-methyl-3-phenyl-5-(2,4,6-trifluorophenyl)pyridazine] | 99 | 99 | – | 98 | – | – | 100 | 99 | 99 | – | – | – | – | – | –
3 | COc1cc(OC)cc(-c2c(-c3ccccc3)nnc(C)c2-c2c(F)cc(OC)cc2F)c1 [Compound 37, 5-(2,6-difluoro-4-methoxyphenyl)-4-(3,5-dimethoxyphenyl)-6-methyl-3-phenylpyridazine] | 100 | 98 | – | 69 | – | – | 99 | 99 | 99 | – | – | – | – | – | –
4 | COc1cc(OC)cc(-c2c(-c3ccccc3F)nnc(Cl)c2-c2c(F)cc(F)c([Si](C)(C)C)c2F)c1 [Compound 38, 3-chloro-5-(3,5-dimethoxyphenyl)-6-(2-fluorophenyl)-4-[2,4,6-trifluoro-3-(trimethylsilyl)phenyl]pyridazine] | 98 | 94 | – | 0 | – | – | 0 | 26 | 99 | – | – | – | – | – | –
5 | Fc1cncc(-c2c(-c3ccccc3F)nnc(Cl)c2-c2c(F)cc(F)cc2F)c1 [Compound 39] | – | – | – | – | – | – | – | – | – | 100* % | 100* % | 100* % | 100* % | 100* % | 100* %
6 | COc1ccncc1-c1c(-c2ccccc2F)nnc(Cl)c1-c1c(F)cc(F)cc1F [Compound 40] | – | – | – | – | – | – | – | – | – | 100* % | 100* % | 60* % | 73* % | 93* % | 100* %
7 | Cc1nnc(-c2ccccc2F)c(-c2cncc(F)c2)c1-c1c(F)cc(F)cc1F [Compound 41] | – | – | – | – | – | – | – | – | – | 100* % | 100* % | 98* % | 97* % | 98* % | 100* %
8 | COc1ccncc1-c1c(-c2ccccc2F)nnc(C)c1-c1c(F)cc(F)cc1F [Compound 42] | – | – | – | – | – | – | – | – | – | 99* % | 100* % | 0* % | 78* % | 41* % | 100* %
9 | COc1cc(OC)c(Cl)c(-c2c(-c3ccccc3F)nnc(Cl)c2-c2c(F)cc(F)cc2F)c1 [Compound 43] | – | – | – | – | – | – | – | – | – | 100* % | 97* % | 100* % | 99* % | 99* % | 100* %
10 | COc1cncc(-c2c(-c3ccccc3F)nnc(Cl)c2-c2c(F)cc(F)cc2F)c1 [Compound 44, 3-chloro-6-(2-fluorophenyl)-5-(5-methoxy-3-pyridinyl)-4-(2,4,6-trifluorophenyl)pyridazine] | 99 | 99 | – | 100 | – | – | 100 | 100 | 100 | – | – | – | – | – | –
11 | COc1cc(OC)cc(-c2c(-c3ccccc3F)nnc(Cl)c2-c2c(F)cc(F)cc2F)c1 [Compound 45, 3-chloro-5-(3,5-dimethoxyphenyl)-6-(2-fluorophenyl)-4-(2,4,6-trifluorophenyl)pyridazine] | 100 | 99 | – | 100 | – | – | 100 | 100 | 100 | – | – | – | – | – | –
12 | COc1cncc(-c2c(-c3ccccc3F)nnc(C)c2-c2c(F)cc(F)cc2F)c1 [Compound 46] | – | – | – | – | – | – | – | – | – | 100* % | 99* % | 0* % | 97* % | 100* % | 100* %
